Measured values published in patent US20020137929A1, “1 - (3-heterocyclylphenyl) isothiourea, -isourea, -guanidine and -amidine herbicidal agents” (Intellectual Property Department, BASF Aktiengesellschaft, priority 1998, published 2002).

Experiments:
[1] = test system: CYPIR (Rice Flatsedge); experiment: Postemergence weed control under flooded paddy conditions; assay type: in vivo, Cyperus iria; conditions: postemergence weeds, rated 3 to 4 weeks after treatment
Method in brief: (§1)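 Containers holding 3–5 cm weeds and rice at 1.5–2.5 leaves are flooded to 1.5–3 cm above soil. Compound in 50/50 v/v aqueous/acetone is then added directly to the water, about 0.0313–0.500 kg/ha. Plants are kept in the greenhouse and rated 0–9 visually at 3–4 weeks.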

[2] = test system: GALAP (Galium); experiment: Postemergence herbicidal evaluation; assay type: in vivo, Galium aparine
Method in brief: (§2)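 ~2-wk seedlings; postemergence spray, 40 psi; vehicle 1:1 acetone:water + 0.5% Tween 20; rate ≈0.0156–0.500 kg/ha; greenhouse hold; scored 4–5 wk after treatment, 0–9 scale vs control; repeat tests averaged.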

[3] = test system: ORYSAT (Rice, Tebonnet); experiment: Postemergence herbicidal evaluation; assay type: in vivo, Oryza sativa, (L.) Tebonnet
Method in brief: as §2

[4] = test system: MOOVA (Monochoria); experiment: Preemergence weed control under flooded paddy conditions; assay type: in vivo, Monochoria vaginalis; conditions: rated 3-4 weeks after treatment
Method in brief: (§3)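 Flooded-pot preemergence screen with silt loam and seeds in the upper 0.5 cm. Dose about 0.0313 to 0.500 kg/ha, delivered into flood water; visual 0-9 score after 3 to 4 weeks.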

[5] = test system: ORYSAT (Rice, Tebonnet); experiment: Preemergence herbicidal evaluation; assay type: in vivo, Oryza sativa, (L.) Tebonnet; conditions: rated 4-5 weeks after treatment
Method in brief: (§4)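 Rating at 4–5 wk post-spray on a 0–9 visual scale vs control. Application: aqueous acetone, ~0.0156–0.500 kg/ha, to soil surface after seeding, preemergence.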

[6] = test system: CHEAL (Lambsquarters, Common); experiment: Postemergence herbicidal evaluation; assay type: in vivo, Chenopodium album
Method in brief: as §2

[7] = test system: SETVI (Foxtail, Green); experiment: Preemergence herbicidal evaluation; assay type: in vivo, Setaria viridis; conditions: rated 4-5 weeks after treatment
Method in brief: as §4

[8] = test system: CYPSE (Flatsedge); experiment: Preemergence weed control under flooded paddy conditions; assay type: in vivo, Cyperus serotinus; conditions: rated 3-4 weeks after treatment
Method in brief: as §3

[9] = test system: ZEAMX (Corn, Field); experiment: Postemergence herbicidal evaluation; assay type: in vivo, Zea mays
Method in brief: as §2

[10] = test system: CYPSE (Flatsedge); experiment: Postemergence weed control under flooded paddy conditions; assay type: in vivo, Cyperus serotinus; conditions: postemergence weeds, rated 3 to 4 weeks after treatment
Method in brief: as §1

[11] = test system: CASOB (Sicklepod); experiment: Postemergence herbicidal evaluation; assay type: in vivo, Cassia obtusifolia
Method in brief: as §2

[12] = test system: GLXMAW (Soybean, Williams); experiment: Preemergence herbicidal evaluation; assay type: in vivo, Glycine max, (L.) Merr. cv Williams; conditions: rated 4-5 weeks after treatment
Method in brief: as §4

[13] = test system: SAGPY (Arrowhead (Pygmaea)); experiment: Postemergence weed control under flooded paddy conditions; assay type: in vivo, Sagittaria pygmaea; conditions: postemergence weeds, rated 3 to 4 weeks after treatment
Method in brief: as §1

[14] = test system: AMBEL (Ragweed, Common); experiment: Preemergence herbicidal evaluation; assay type: in vivo, Ambrosia artemisifolia; conditions: rated 4-5 weeks after treatment
Method in brief: as §4

`CN1C(=O)C(CC(=O)O)SC1=Nc1cc(-n2c(=O)cc(C(F)(F)F)n(C)c2=O)c(F)cc1Cl` (stereo not shown) [Compound 63, 2-{{2-Chloro-5-[3,6-dihydro-3-methyl-2,6-dioxo-4-(trifluoromethyl)-1(2H)-pyrimidinyl]-4-fluoro-phenyl}imino}-3-methyl-4-oxo-5-thiazolidineacetic acid] was tested, and the “Herbicidal rating CYPIR” value ([1]; Rate 0.0313 kg/ha) was 2.0, the “Herbicidal rating CYPIR” value ([1]; Rate 0.0625 kg/ha) was 6.0 and the “Herbicidal rating CYPIR” value ([1]; Rate 0.1250 kg/ha) was 7.0. For the same molecule, the “Herbicidal rating CYPIR” value ([1]; Rate 0.2500 kg/ha) was 7.0, the “Postemergence herbicidal rating GALAP” value ([2]; Rate 0.0158 kg/ha) was 1.0 and the “Postemergence herbicidal rating GALAP” value ([2]; Rate 0.0315 kg/ha) was 6.0. The “Postemergence herbicidal rating GALAP” value ([2]; Rate 0.0630 kg/ha) was 7.0, the “Postemergence herbicidal rating ORYSAT” value ([3]; Rate 0.0158 kg/ha) was 5.0 and the “Postemergence herbicidal rating ORYSAT” value ([3]; Rate 0.0315 kg/ha) was 5.0. For the same molecule, the “Postemergence herbicidal rating ORYSAT” value ([3]; Rate 0.0630 kg/ha) was 6.0, the “MOOVA herbicidal effect rating” value ([4]; 0.0313 kg/ha) was 9.0 and the “MOOVA herbicidal effect rating” value ([4]; 0.0625 kg/ha) was 9.0. The “MOOVA herbicidal effect rating” value ([4]; 0.1250 kg/ha) was 9.0, the “MOOVA herbicidal effect rating” value ([4]; 0.2500 kg/ha) was 9.0 and the “Preemergence herbicidal rating ORYSAT” value ([5]; rate 0.0156 kg/ha) was 0.0. For the same molecule, the “Preemergence herbicidal rating ORYSAT” value ([5]; rate 0.0313 kg/ha) was 0.0, the “Preemergence herbicidal rating ORYSAT” value ([5]; rate 0.0625 kg/ha) was 5.0 and the “Preemergence herbicidal rating ORYSAT” value ([5]; rate 0.1250 kg/ha) was 7.0. For the same molecule, the “Preemergence herbicidal rating ORYSAT” value ([5]; rate 0.2500 kg/ha) was 7.0, the “Postemergence herbicidal rating CHEAL” value ([6]; Rate 0.0158 kg/ha) was 9.0 and the “Postemergence herbicidal rating CHEAL” value ([6]; Rate 0.0315 kg/ha) was 9.0. The “Postemergence herbicidal rating CHEAL” value ([6]; Rate 0.0630 kg/ha) was 7.0, the “Preemergence herbicidal rating SETVI” value ([7]; rate 0.0156 kg/ha) was 0.0 and the “Preemergence herbicidal rating SETVI” value ([7]; rate 0.0313 kg/ha) was 0.0. For the same molecule, the “Preemergence herbicidal rating SETVI” value ([7]; rate 0.0625 kg/ha) was 1.0, the “Preemergence herbicidal rating SETVI” value ([7]; rate 0.1250 kg/ha) was 9.0 and the “Preemergence herbicidal rating SETVI” value ([7]; rate 0.2500 kg/ha) was 9.0. The “CYPSE herbicidal effect rating” value ([8]; 0.0313 kg/ha) was 0.0, the “CYPSE herbicidal effect rating” value ([8]; 0.0625 kg/ha) was 0.0 and the “CYPSE herbicidal effect rating” value ([8]; 0.1250 kg/ha) was 0.0. For the same molecule, the “CYPSE herbicidal effect rating” value ([8]; 0.2500 kg/ha) was 0.0, the “Postemergence herbicidal rating ZEAMX” value ([9]; Rate 0.0158 kg/ha) was 7.0 and the “Postemergence herbicidal rating ZEAMX” value ([9]; Rate 0.0315 kg/ha) was 7.5. The “Postemergence herbicidal rating ZEAMX” value ([9]; Rate 0.0630 kg/ha) was 7.5, the “Herbicidal rating CYPSE” value ([10]; Rate 0.0313 kg/ha) was 0.0 and the “Herbicidal rating CYPSE” value ([10]; Rate 0.0625 kg/ha) was 0.0. The “Herbicidal rating CYPSE” value ([10]; Rate 0.1250 kg/ha) was 0.0, the “Herbicidal rating CYPSE” value ([10]; Rate 0.2500 kg/ha) was 0.0 and the “Postemergence herbicidal rating CASOB” value ([11]; Rate 0.0158 kg/ha) was 0.0. The “Postemergence herbicidal rating CASOB” value ([11]; Rate 0.0315 kg/ha) was 3.0, the “Postemergence herbicidal rating CASOB” value ([11]; Rate 0.0630 kg/ha) was 5.0 and the “Preemergence herbicidal rating GLXMAW” value ([12]; rate 0.0156 kg/ha) was 0.0. The “Preemergence herbicidal rating GLXMAW” value ([12]; rate 0.0313 kg/ha) was 1.0, the “Preemergence herbicidal rating GLXMAW” value ([12]; rate 0.0625 kg/ha) was 4.0 and the “Preemergence herbicidal rating GLXMAW” value ([12]; rate 0.1250 kg/ha) was 6.0. The “Preemergence herbicidal rating GLXMAW” value ([12]; rate 0.2500 kg/ha) was 7.0, the “Herbicidal rating SAGPY” value ([13]; Rate 0.0313 kg/ha) was 4.0 and the “Herbicidal rating SAGPY” value ([13]; Rate 0.0625 kg/ha) was 7.0. The “Herbicidal rating SAGPY” value ([13]; Rate 0.1250 kg/ha) was 9.0, the “Herbicidal rating SAGPY” value ([13]; Rate 0.2500 kg/ha) was 9.0 and the “Preemergence herbicidal rating AMBEL” value ([14]; rate 0.0156 kg/ha) was 0.0. The “Preemergence herbicidal rating AMBEL” value ([14]; rate 0.0313 kg/ha) was 0.0, the “Preemergence herbicidal rating AMBEL” value ([14]; rate 0.0625 kg/ha) was 6.0 and the “Preemergence herbicidal rating AMBEL” value ([14]; rate 0.1250 kg/ha) was 9.0. The “Preemergence herbicidal rating AMBEL” value ([14]; rate 0.2500 kg/ha) was 9.0.
